Experiments:
[1] = test system: MKN45 NLR target cells; assay: Reversibility killing assay with two and three stimulations (OFF/ON, ON/OFF/ON), MKN45 NLR + CEA-TCB, Incucyte; format: cell-based, human
Description: FIG. 16. In vitro killing assay set-up and timelines. PBMCs were stimulated on MKN45 NLR (E:T=10:1) target cells with 1 nM CEA-TCB for 96 hours. Activated PBMCs were washed and restimulated on new MKN45 NLR target cells (E:T=10:1) with 1 nM CEA-TCB in the presence of 25 nM dasatinib for 72 hours. Activated PBMCs were washed to remove dasatinib and restimulated on new MKN45 NLR target cells (E:T=10:1) with 1 nM CEA-TCB (“ON/OFF/ON”, see upper row of table), or vice versa (“OFF/ON/OFF”, see lower row of table). Killing was followed by Incucyte®.
FIG. 17. Real time killing of MKN45 NLR target cells by CEA-TCB in the presence of 25 nM dasatinib (0-72 h) upon first stimulation and in the absence of 25 nM dasatinib (96-170 h) upon restimulation, in the assay of FIG. 16 (“OFF/ON”).
FIG. 19. Real time killing of MKN45 NLR target cells by CEA-TCB in the assay of FIG. 16 (“ON/OFF/ON”).
FIG. 21. CEA-TCB mediated target cell killing. (A) PBMCs were stimulated on MKN45 NLR (E:T=10:1) target cells with 1 nM CEA-TCB for 96 hours in the presence and absence of dasatinib. (B) Activated PBMCs were washed to remove dasatinib and restimulated on new MKN45 NLR target cells (E:T=10:1) with 1 nM CEA-TCB. Killing was followed by Incucyte®.
We then verified if dasatinib's effect is reversible upon its removal. Therefore we set-up a killing assay with two and three stimulations in the presence and absence of dasatinib and followed the killing kinetics using an Incucyte® system (FIG. 16). After each stimulation, effector cells were washed and re-stimulated on fresh MKN45 NLR target cells with 1 nM CEA TCB in the presence and absence of dasatinib allowing to mimic OFF/ON switch and ON/OFF/ON switch.
Lastly, we evaluated if the effect of dasatinib was reversible on activated T cells. Consequently, we supplemented the media with 25 nM dasatinib upon the second stimulation with 1 nM CEA-TCB to prevent killing from activated T cells and then removed the dasatinib upon third stimulation with 1 nM CEA-TCB to verify if killing would be restored. […] We concluded that the effect of dasatinib in the prevention of T cell activation and cytotoxicity is reversible.
For T-cell engaging antibodies, cytokine release peaks are higher upon the first treatment than after subsequent treatments. We were curious to see if low doses of dasatinib could prevent cytokine release while minimally affecting TCB-efficacy upon first stimulation. In killing assays as described in FIG. 16, the cytokine levels upon first treatment with 1 nM CEA-TCB in the presence of 6.25 nM and 12.5 nM dasatinib and upon second treatment with 1 nM CEA-TCB in the absence of dasatinib were measured in the supernatants. […] Its removal upon second stimulation may also balance the cytokine release and restore TCB-induced cytotoxicity due to the reversibility properties of dasatinib.

[2] = test system: CD4+ and CD8+ T cells; assay: T cell activation (CD25, CD69 by FACS) in SKM-1 killing assay with HLA-A2 WT-1-TCB, dasatinib added after 24 hours; format: cell-based, human; conditions: 48 hours; 100 nM dasatinib added at 24h; 10 nM HLA-A2 WT-1-TCB
Description: (§1) FIG. 3. In vitro killing assay set-up and timelines. PBMCs were co-cultured with SKM-1 target cells (E:T=10:1) and 10 nM HLA-A2 WT-1-TCB. Dasatinib (100 nM) was added after 24 hours of activation. PBMCs were labelled with CellTrace™ Violet (CTV) to allow T cell proliferation assessment.
FIG. 4. T cell activation. CD25 and CD69 expression on CD4+ and CD8+ T cells was measured by FACS after 24h and 48h of activation in the presence and absence of dasatinib, according to the assay of FIG. 3. (A) CD25 expression on CD8+ T cells, (B) CD25 expression on CD4+ T-cells, (C) CD69 expression on CD8+ T cells, (D) CD69 expression on CD4+ T cells.
(§2) To evaluate if dasatinib could act as a rapid and potent inhibitor of activated T cells, we first stimulated PBMCs on SKM-1 tumor cells with HLA-A2 WT-1-TCB for 24 hours. We then supplemented these activated effector cells with 100 nM dasatinib (FIG. 3).
Upon addition of 100 nM dasatinib at 24h, expression of early activation marker CD69 and late activation marker CD25 on CD4+ and CD8+ T cells at 48 hours was found at an intermediate level between expression measured at 24 hours and expression measured at 48 hours in samples with no dasatinib treatment (FIG. 4).

[3] = test system: IFN-γ, IL-2 and TNF-α release; assay: Cytokine release in supernatants of the CEA-TCB killing assay (Luminex, 96 hours); format: cell-based, human; conditions: dasatinib above 12.5 nM, 1 nM CEA-TCB
Description: Cytokine release. Supernatant were collected at the endpoint (96 hours) of the assay in FIG. 1 and cytokines ((A) IFNγ, (B) IL-2, (C) TNF-α) measured by multiplex cytokine analysis (Luminex). 1 nM CEA-TCB, 1 donor.

[4] = 146 patients, 100 mg dasatinib QD; cited from earlier work
[5] = test system: IFN-γ, TNF-α and IL-2 release; assay: Cytokine release in SKM-1 killing assay with HLA-A2 WT-1-TCB, dasatinib added after 24 hours (Luminex); format: cell-based, human; conditions: 48 hours; 100 nM dasatinib added at 24 hours
Description: as §1
FIG. 5. Cytokine release. Supernatants were collected from the assay of FIG. 3 at 24h and 48h, and cytokines (IFN-γ (A), TNF-α (B) and IL-2 (C)) measured using a multiplex kit (Luminex). Mean+/−SD of 3 donors.
as §2

SMILES: Cc1nc(Nc2ncc(C(=O)Nc3c(C)cccc3Cl)s2)cc(N2CCN(CCO)CC2)n1 [dasatinib, N-(2-chloro-6-methylphenyl)-2-[[6-[4-(2-hydroxyethyl)-1-piperazinyl]-2-methyl-4-pyrimidinyl]amino]-5-thiazole carboxamide monohydrate]
- killing induced by 1 nM CEA-TCB during first stimulation ([1]; 6.25 nM and 12.5 nM dasatinib): only partially inhibited the killing
- killing of MKN45 NLR target cells (OFF/ON) ([1]; 25 nM dasatinib during first stimulation, removed for second, 1 nM CEA TCB): killing inhibition which was then reversed upon dasatinib removal
- killing of MKN45 cells (ON/OFF/ON) ([1]; 25 nM dasatinib upon second stimulation, removed upon third, 1 nM CEA-TCB): inhibited with the addition of 25 nM upon second stimulation and restored upon third stimulation
- killing upon removal of dasatinib during second stimulation ([1]; after 6.25 nM and 12.5 nM dasatinib in first stimulation): killing was restored
- CD25 and CD69 expression on CD4+ and CD8+ T cells [2]: rapidly blocked the expression of phenotypic activation markers
- release of IFN-γ, IL-2 and TNF-α [3]: prevented the release
- Cmax [4]: 54.6 ng/mL
- Cmin [4]: 2.61 ng/mL
- release of IFN-γ, TNF-α and IL-2 from activated T cells [5]: rapidly prevented the release of cytokines
